Columns and labels:
rats [1] = assay: Yohimbine-induced anxiety-like behavior in rat social interaction test; type: in vivo
Description: The male SD rats (weighing 201.8 to 285.6 g; Charles River Japan Inc.)were used in this study. On the day of behavioral evaluation, the animals were acclimatized to the test environment from 4 hours before the start of the experiment. Sixty minutes after oral administration of a vehicle (0.5 w/v % MC solution) or a test compound (prepared in suspension in 0.5 w/v % MC solution to obtain a dosing concentration of 0.5 mL per 100 g of rat body weight), two rats were allowed to meet each other in an acrylic box (50×50×50 cm). The total time of social interaction behaviors (sniffing, following, grooming and the like) during monitoring for 10 minutes immediately after meeting (between-rats interaction time) were measured with a stopwatch. Using the method of Test Example 4, the effect of a compound on the anxiety induced with administration of an anxiogenic substance was examined. Yohimbine (adrenalin α2 receptor antagonist) is known as one of the anxiogenic substance. It is thought that locus coeruleus hyperactivity that accompanies α2 receptor antagonizing action is contributory to the anxiety-inducing action of Yohimbine. Anxiety symptoms that develop with administration of Yohimbine to healthy persons were reported to be similar to panic disorders, in the pathophysiology of which abnormal locus coeruleus activity is considered to be largely involved. […]

male SD rats [2] = assay: Rat social interaction test; type: in vivo; settings: 0.3 mg/kg oral
Description: It is known that these social interactions increase with administration of existing anxiolytics. This test is thought as an animal model of social phobia or generalized anxiety disorders because it is consider that contradictory social environments between two rats cause stress (Eur. J. Pharmacol., 408, p. 41 (2000)).
(§1) The male SD rats (weighing 201.8 to 285.6 g; Charles River Japan Inc.)were used in this study. On the day of behavioral evaluation, the animals were acclimatized to the test environment from 4 hours before the start of the experiment. Sixty minutes after oral administration of a vehicle (0.5 w/v % MC solution) or a test compound (prepared in suspension in 0.5 w/v % MC solution to obtain a dosing concentration of 0.5 mL per 100 g of rat body weight), two rats were allowed to meet each other in an acrylic box (50×50×50 cm). The total time of social interaction behaviors (sniffing, following, grooming and the like) during monitoring for 10 minutes immediately after meeting (between-rats interaction time) were measured with a stopwatch.

male SD rats [3] = assay: Conditioned fear stress (CFS) test in rats; type: in vivo, rat; settings: 0.3 mg/kg, 60 min before retention trial
Description: In this test (Folia Pharmacologica Japonica, 113, p. 113 (1999)), the influences of psychological stress resulting from past aversion experience on living organisms can be measured as behavioral suppression (freezing reaction) or autonomic nervous system hyperactivity (increases in respiratory rate and blood pressure).
The male SD rats (weighing 140.2 to 320.0 g; Charles River Japan Inc.) and a contextual learning test system were used in this study. The experimental apparatus is consisted of a soundproof box, and a test cage (20×20×25 cm), a shock generator, a controller, an external monitor and PC analysis system, which were placed in the soundproof box. The test cage has stainless bars on the floor at 1-cm intervals. A scrambled electric current was generated from the shock generator using 35 a command of the special program . The inside of the soundproof box was equipped with a speaker. A buzzer sound of 65 dB was generated via the controller using a command of the special program. The animal behavior within the test cage was recorded with a CCD camera, which was positioned on the ceiling of the soundproof box. […] The percentage of freezing behavior was determined by (Freezing time/Test time)×100. […] According to the same schedule as that on the previous day, only a buzzer sound was generated six times and the duration of freezing behavior was measured. […]

male ICR mice = assay: Marble burying behavior test in mice; type: in vivo; settings: 3 mg/kg oral, 1 hour before test; marbles counted after 30 minutes; significant
Description: This test is known as one of the test systems for anxiolytics (Folia Pharmacologica Japonica, 126, p. 94 (2005)). Marble-burying behavior is a behavior of the mouse to bury marbles in spread planer bedding on which the marbles were placed, and is suppressed, without being accompanied by motor inhibition, by selective serotonin reuptake inhibitors (SSRIs). Since the behavior of the mouse to attempt to cover and bury harmless marbles in planer bedding is apparently similar to compulsions in patients with obsessive-compulsive disorders that are repeated while they recognize them as being unreasonable, and also since SSRIs are effective as therapeutic drugs for obsessive-compulsive disorders, and for other reasons, the marble burying behavior is getting positioned as an animal model of obsessive-compulsive disorder
The male ICR mice (weighing 27.6 to 42.9 g; Japan SLC, Inc.) were used in this study. […] At 30 minutes later, the number of marbles more than half-buried in the planer was counted. […]
The effects of the drug are expressed as the actually measured number of buried marbles and the inhibition rate calculated by the following equation.

male SD rats [4] = assay: Elevated plus maze test in rat; type: in vivo; settings: 0.1 mg/kg oral
Description: In this test, a conflict arises between rodent's exploratory drive and an innate aversion to bright open new spaces (open arms), accordingly, it has been reported that drugs having anti-anxiety activity increase the time spent in the open arms and the number of open arm entries, while anxiogenic substance decreases these parameters (Japanese Journal of Clinical Psychopharmacology, 9, p. 2389 (2006)). This test is thought to be an animal model of generalized anxiety disorders (Folia Pharmacologica Japonica, 115, p. 5 (2005), Japanese Journal of Clinical Psychopharmacology, 9, p. 2389 (2006)).
The male SD rats (weighing 133.8 to 260.2 g; Charles River Japan Inc.) were used in this study. An apparatus was used wherein two open arms (50×10 cm) extending on the same line from a 10 cm-square central area and two enclosed arms (50×10 cm) surrounded by a wall of 40 cm height are perpendicularly crossing. Sixty minutes after oral administration of a vehicle (0.5 w/v % MC solution) or a test 20 compound (a suspension in 0.5 w/v % MC solution prepared to obtain a dosing concentration of 0.5 mL per 100 g of rat body weight), each rat was placed in the center of the elevated plus maze with its head facing toward the enclosed arm and immediately observed for its behavior for 5 minutes. The rat behavior on the maze was recorded with a digital video camera positioned on the ceiling of the laboratory. The times spent and number of entries in the open arms, enclosed arms and central platform, and distance travelled were determined using analysis software. The time spent in the open arms, percentage of open arm entries (ratio of the number of entries in the open arms to the total number of entries in the open and enclosed arms) and total distance travelled on the maze during the monitoring period were determined to evaluate the influences of the test compound.

rats [5] = assay: mCPP-induced anxiety-like behavior in rat social interaction test; type: in vivo
Description: as §1
Meanwhile, meta-chlorophenylpiperadine hydrochloride (mCPP) is an anxiogenic substance having a 5-HT2 receptor stimulation action. It was reported that mCPP induced anxiety symptoms in healthy subjects and aggravated the symptoms of generalized anxiety disorder in humans. The mCPP-induced anxiety response is an experimental model that well reflects anxiety (for example, generalized anxiety disorder) caused by abnormal signaling especially via 5-HT2 receptors.
Next, the effect on mCPP-induced anxiety was examined. […]

male Wistar rats = assay: Vogel conflict test in rats; type: in vivo, rat; settings: 0.03 mg/kg oral, 60 minutes before; 5 min session; vehicle 6.1±0.8 times; P=0.003846, Steel-test
Description: This test is to measure drinking counts (number of shocks during drinking) when an electric shock is applied to a water-deprived rat at each time that the rat drinks water. Under this condition, a rat is thought to be placed under a state of conflict between the motivation to drink (positive reinforcing factor) and the aversion to receiving an electric shock (negative reinforcing factor, punishment). When anxiolytics are administered to a rat, anxiety about punishing stimuli is suppressed and behavior in an attempt to take a positive reinforcer is observed. This test is thought to be an animal model of generalized anxiety disorders (Folia Pharmacologica Japonica, 115, p. 5 (2005), Japanese Journal of Clinical Psychopharmacology, 9, p. 2389 (2006)).
The male Wistar rats (weighing 148.4 to 211.7 g; Japan SLC, Inc.) and an operant experimental apparatus were used in 20 this study. The chamber consisted of a soundproof box, and a test cage (25×30×25 cm), a shock generator, a controller, a licking sensor and PC analysis system placed in the soundproof box. […] Current conduction by licking (drinking) was detected with the licking senor and measured with the PC analysis system via the controller. […] Twenty nozzle licks were counted as one drinking response and drinking frequency (drinking count) was determined (pre-value). […]

COC(=O)[C@@H]1[C@H]2C[C@H]3c4[nH]c5ccccc5c4CCN3C[C@@H]2CC[C@@H]1O [Yohimbine, reference compound]
between-rats interaction time (Yohimbine alone) (rats [1]; Yohimbine 5 mg/kg oral, 30 minutes before measurement, vehicle 90.6±7.1 seconds, P=0.0010, Aspin-Welch test): 57.6 ± 3.4 s

Cc1ccc(C(=O)Nc2nc(-c3ccco3)c(C(=O)C3CCOCC3)s2)cn1 [compound (IC)]
between-rats interaction time (male SD rats [2]; 60 min before, 10 min monitoring, vehicle 85.2 ±7.6 seconds, P=0.01545, Dunnett test): 119.3 ± 9.0 s
spontaneous activity (male SD rats [2]; vehicle 8635.3 ±506.4 counts, P<0.001, Dunnett test): 12922.7 ±646.8 counts
percentage of freezing behavior in the post-tone period (male SD rats [3]; vehicle 59.8±9.6, P=0.01559, Dunnett test): 23.4 ± 8.1%
percentage of freezing behavior in the with-tone period (male SD rats [3]; vehicle 90.2±2.6, P=0.02867, Steel test): 57.1 ± 9.9%
% inhibition of mouse marble burying behavior (male ICR mice): 73.7%
time spent in the open arms (male SD rats [4]; 60 min before, 5 minutes, vehicle 21.6 ±7.4 seconds, P=0.01687, Steel test): 61.6 ± 10.9 s
percentage of open arm entries (male SD rats [4]; vehicle 15.5±3.0%, P=0.04759, Steel test): 33.4±6.3%
total distance travelled on the maze (male SD rats [4]; vehicle 2521.97±95.34 cm, not affected): 2414.83±102.13 cm
between-rats interaction time (improvement of reduction by Yohimbine) (rats [1]; 0.03 mg/kg, 30 minutes before Yohimbine (5 mg/kg), Yohimbine alone 57.6±3.4 seconds, P=0.00019, Steel test): 90.3 ± 5.0 s
between-rats interaction time (improvement of reduction by mCPP) (rats [5]; 0.3 mg/kg, 30 minutes before mCPP (0.5 mg/kg), mCPP alone 32.5±3.6 seconds, P<0.001, Dunnett test): 62.4 ± 6.9 s
number of electric shocks received (drinking count, test-punished session) (male Wistar rats): 12.7±1.7 times

Cl.Clc1cccc(N2CCNCC2)c1 [mCPP, meta-chlorophenylpiperadine hydrochloride, reference compound]
between-rats interaction time (mCPP alone) (rats [5]; mCPP 0.5 mg/kg oral, 30 minutes before measurement, vehicle 83.4±5.1 seconds, P<0.001, Student's t-test): 32.5 ± 3.6 s
